Drawing on US11464770B2, “Anticancer pharmaceutical composition” (NATIONAL CANCER CENTER, priority 2016, dated 2022), this text covers IC50 for 18 compounds.

Read-outs that look alike come from different tables or passages of the source. Where only a bound is given, the exact number is not on record here.

The assay concerns breast cancer cell lines (e.g. MDA-MB-231, SK-BR-3, MDA-MB-468, HCC1954). As to the kind of experiment: Cell based assay, cell viability (CellTiter-Glo), breast cancer cell lines. To be noted: 72 hours, CellTiter-Glo. As to the method: Commercially available bladder cancer, prostate cancer, lung cancer, breast cancer, blood cancer, pancreatic cancer, colorectal cancer, brain cancer, neuroblastoma, melanoma, liver cancer, cervical carcinoma, ovarian cancer, renal cancer, and papilloma cell lines were each treated with trypsin-EDTA and cultured, followed by being seeded in each well of a 96 well plate. After 24 hours of treatment at constant temperature, the respective cells were treated with the candidate compound so that a final concentration became 0 to 2 μM. The treated cells were additionally cultured for 72 hours, and cell viability was measured by using an ATP detection method (CellTiter-Glo® Luminescent Cell Viability Assay, Promega).
(In general: ATP-based viability assays read luminescence as a measure of living cells.)

Where [1] appears, read: Breast cancer cell line MDA-MB-231-L/DOX, read-out: IC50, MDA-MB-231-L/DOX.
[2] abbreviates: Homo sapiens, Breast cancer cell line BT-20, read-out: IC50, BT-20.
Setting [3] is: Homo sapiens, Breast cancer cell line HCC1395, read-out: IC50, HCC1395.
Setting [4] is: Homo sapiens, Breast cancer cell line HCC1954, read-out: IC50, HCC1954.
[5] abbreviates: Homo sapiens, Breast cancer cell line JIMT-1, read-out: IC50, JIMT-1.
[6] abbreviates: Homo sapiens, Breast cancer cell line MCF7, read-out: IC50, MCF7.
[7] abbreviates: Homo sapiens, Breast cancer cell line MDA-MB-231, read-out: IC50, MDA-MB-231.
Where [8] appears, read: Homo sapiens, Breast cancer cell line MDA-MB-468, read-out: IC50, MDA-MB-468.
Where [9] appears, read: Homo sapiens, Breast cancer cell line SK-BR-3, read-out: IC50, SK-BR-3.

On to `CCS(=O)(=O)n1c([S+](C)[O-])c(C(C)=O)c(=O)c2c(Cl)ccc(Br)c21` (stereo not drawn) [Compound 39, 3-acetyl-8-bromo-5-chloro-1-(ethylsulfonyl)-2-(methylsulfinyl)quinolin-4(1H)-one], for which the IC50 by setting is: under setting [1], over 2000 nM; under setting [2], over 2000 nM; under setting [3], over 10000 nM; under setting [4], over 2000 nM; under setting [5], over 10000 nM; under setting [6], over 2000 nM. Moreover, the IC50 runs as follows: under setting [7], over 2000 nM; under setting [8], over 2000 nM; under setting [9], over 2000 nM.

For the compound `CSc1c(C(C)=O)c(=O)c2c(Cl)ccc(Br)c2n1S(=O)(=O)c1ccc(C(C)(C)C)cc1` [Compound 40, 3-acetyl-8-bromo-1-((4-(tert-butyl)phenyl)sulfonyl)-5-chloro-2-(methylthio)quinolin-4(1H)-one], the IC50 is, setting by setting: under setting [1], over 2000 nM; under setting [2], over 2000 nM; under setting [3], over 10000 nM; under setting [4], over 2000 nM; under setting [5], over 10000 nM; under setting [6], over 2000 nM. Further, the IC50 by setting is: under setting [7], over 2000 nM; under setting [8], over 2000 nM; under setting [9], over 2000 nM.

In the case of `CC(=O)c1c(S(C)(=O)=O)n(S(=O)(=O)c2ccc(C(C)(C)C)cc2)c2c(Br)ccc(Cl)c2c1=O` [Compound 41, 3-acetyl-8-bromo-1-((4-(tert-butyl)phenyl)sulfonyl)-5-chloro-2-(methylsulfonyl)quinolin-4(1H)-one], the IC50 reads like this: under setting [1], over 2000 nM; under setting [2], over 2000 nM; under setting [3], over 10000 nM; under setting [4], over 2000 nM; under setting [5], over 10000 nM; under setting [6], over 2000 nM. The IC50 runs as follows: under setting [7], over 2000 nM; under setting [8], over 2000 nM; under setting [9], over 2000 nM.

Consider `CC(=O)c1c([S+](C)[O-])n(S(=O)(=O)c2ccc(C(C)(C)C)cc2)c2c(Br)ccc(Cl)c2c1=O` (stereo not drawn) [Compound 42, 3-acetyl-8-bromo-1-((4-(tert-butyl)phenyl)sulfonyl)-5-chloro-2-(methylsulfinyl)quinolin-4(1H)-one], for which the IC50 was over 2000 nM under setting [1]; over 2000 nM under setting [2]; over 10000 nM under setting [3]; over 2000 nM under setting [4]; over 10000 nM under setting [5]; over 2000 nM under setting [6]. Also, the IC50 reads like this: under setting [7], over 2000 nM; under setting [8], over 2000 nM; under setting [9], 1570 nM.

Consider `CC(=O)c1c(SCc2cc(Cl)ccc2Cl)[nH]c2c(Br)ccc(Cl)c2c1=O` [Compound 43, 3-acetyl-8-bromo-5-chloro-2-((2,5-dichlorobenzyl)thio)quinolin-4(1H)-one], for which the IC50 was over 2000 nM under setting [1]; over 2000 nM under setting [2]; over 10000 nM under setting [3]; over 2000 nM under setting [4]; over 10000 nM under setting [5]; over 2000 nM under setting [6]. In addition, the IC50 under setting [7] is over 2000 nM, the IC50 under setting [8] is over 2000 nM and the IC50 under setting [9] is over 2000 nM.

Take `CC(=O)c1c(SCc2cc(F)cc(F)c2)[nH]c2c(Br)ccc(Cl)c2c1=O` [Compound 45, 3-acetyl-8-bromo-5-chloro-2-((3,5-difluorobenzyl)thio)quinolin-4(1H)-one]: the IC50 runs as follows: under setting [1], over 2000 nM; under setting [2], over 2000 nM; under setting [3], over 10000 nM; under setting [4], over 2000 nM; under setting [5], over 10000 nM; under setting [6], over 2000 nM. Further, the IC50 is, setting by setting: under setting [7], over 2000 nM; under setting [8], over 2000 nM; under setting [9], over 2000 nM.

Turning to `CC(=O)c1c(SCc2cccc(I)c2)[nH]c2c(Br)ccc(Cl)c2c1=O` [Compound 47, 3-acetyl-8-bromo-5-chloro-2-((3-iodobenzyl)thio)quinolin-4(1H)-one], the IC50 under setting [1] was over 2000 nM; the IC50 under setting [2] is over 2000 nM; the IC50 under setting [3] is over 10000 nM; the IC50 under setting [4] is over 2000 nM; the IC50 under setting [5] is over 10000 nM; the IC50 under setting [6] is over 2000 nM. Moreover, the IC50 was over 2000 nM under setting [7], over 2000 nM under setting [8] and over 2000 nM under setting [9].

On to `CC(=O)c1c([S+]([O-])Cc2cccc(I)c2)[nH]c2c(Br)ccc(Cl)c2c1=O` (stereo not drawn) [Compound 48, 3-acetyl-8-bromo-5-chloro-2-((3-iodobenzyl)sulfinyl)quinolin-4(1H)-one], for which the IC50 by setting is: under setting [1], over 2000 nM; under setting [2], over 2000 nM; under setting [3], over 10000 nM; under setting [4], over 2000 nM; under setting [5], over 10000 nM; under setting [6], over 2000 nM. Moreover, the IC50 was over 2000 nM under setting [7], over 2000 nM under setting [8] and over 2000 nM under setting [9].

In the case of `CC(=O)c1c(SCc2cccc(F)c2)[nH]c2c(Br)ccc(Cl)c2c1=O` [Compound 49, 3-acetyl-8-bromo-5-chloro-2-((3-fluorobenzyl)thio)quinolin-4(1H)-one], the IC50 is over 2000 nM under setting [1]; over 2000 nM under setting [2]; over 10000 nM under setting [3]; over 2000 nM under setting [4]; over 10000 nM under setting [5]; over 2000 nM under setting [6]. The IC50 under setting [7] is over 2000 nM, the IC50 under setting [8] is over 2000 nM and the IC50 under setting [9] is over 2000 nM.

For the compound `CC(=O)c1c(SCc2ccccc2)nc2c(Br)ccc(Cl)c2c1O` [Compound 52, 1-(2-(benzylthio)-8-bromo-5-chloro-4-hydroxyquinolin-3-yl)ethan-1-one], the IC50 under setting [1] is over 2000 nM; the IC50 under setting [2] was over 2000 nM; the IC50 under setting [3] was over 10000 nM; the IC50 under setting [4] is over 2000 nM; the IC50 under setting [5] is over 10000 nM; the IC50 under setting [6] was over 2000 nM. The IC50 reads like this: under setting [7], over 2000 nM; under setting [8], over 2000 nM; under setting [9], over 2000 nM.

With `CC(=O)c1c([S+]([O-])Cc2ccccc2)nc2c(Br)ccc(Cl)c2c1O` (stereo not drawn) [Compound 53, 1-(2-(benzylsulfinyl)-8-bromo-5-chloro-4-hydroxyquinolin-3-yl)ethan-1-one], the IC50 by setting is: under setting [1], over 2000 nM; under setting [2], over 2000 nM; under setting [3], over 10000 nM; under setting [4], over 2000 nM; under setting [5], over 10000 nM; under setting [6], over 2000 nM. Moreover, the IC50 under setting [7] was over 2000 nM, the IC50 under setting [8] is over 2000 nM and the IC50 under setting [9] is over 2000 nM.

For the compound `CC(=O)c1c(S(=O)(=O)Cc2ccccc2)nc2c(Br)ccc(Cl)c2c1O` [Compound 54, 1-(2-(benzylsulfonyl)-8-bromo-5-chloro-4-hydroxyquinolin-3-yl)ethan-1-one], the IC50 reads like this: under setting [1], over 2000 nM; under setting [2], over 2000 nM; under setting [3], over 10000 nM; under setting [4], over 2000 nM; under setting [5], over 10000 nM; under setting [6], over 2000 nM. Moreover, the IC50 under setting [7] is over 2000 nM, the IC50 under setting [8] is over 2000 nM and the IC50 under setting [9] was over 2000 nM.

Take `CC(=O)c1c([S+]([O-])Cc2ccccc2C#N)[nH]c2c(Br)ccc(Cl)c2c1=O` (stereo not drawn) [Compound 58, 2-(((3-acetyl-8-bromo-5-chloro-4-oxo-1,4-dihydroquinolin-2-yl)sulfinyl)methyl)benzonitrile]: the IC50 is over 2000 nM under setting [1]; over 2000 nM under setting [2]; over 10000 nM under setting [3]; over 2000 nM under setting [4]; over 10000 nM under setting [5]; over 2000 nM under setting [6]. Further, the IC50 is, setting by setting: under setting [7], over 2000 nM; under setting [8], over 2000 nM; under setting [9], 620 nM.

Turning to `COCSc1[nH]c2c(Br)ccc(Cl)c2c(=O)c1C(C)=O` [Compound 61, 3-acetyl-8-bromo-5-chloro-2-((methoxymethyl)thio)quinolin-4(1H)-one], the IC50 under setting [1] was over 2000 nM; the IC50 under setting [2] is over 2000 nM; the IC50 under setting [3] was over 10000 nM; the IC50 under setting [4] is over 2000 nM; the IC50 under setting [5] is over 10000 nM; the IC50 under setting [6] is over 2000 nM. The IC50 under setting [7] was over 2000 nM, the IC50 under setting [8] was over 2000 nM and the IC50 under setting [9] was over 2000 nM.

For `CC(=O)c1c(S)[nH]c2c(Br)ccc(Cl)c2c1=O` [Compound 62, 3-acetyl-8-bromo-5-chloro-2-mercaptoquinolin-4(1H)-one], the IC50 is, setting by setting: under setting [1], over 2000 nM; under setting [2], over 2000 nM; under setting [3], over 10000 nM; under setting [4], over 2000 nM; under setting [5], over 10000 nM; under setting [6], over 2000 nM. For the same compound, the IC50 under setting [7] was over 2000 nM, the IC50 under setting [8] was over 2000 nM and the IC50 under setting [9] was over 2000 nM.

For the compound `CC(=O)c1c([S+]([O-])Cc2ccc(C(=O)c3ccccc3)cc2)[nH]c2c(Br)ccc(Cl)c2c1=O` (stereo not drawn) [Compound 63, 3-acetyl-2-((4-benzoylbenzyl)sulfinyl)-8-bromo-5-chloroquinolin-4(1H)-one], the IC50 by setting is: under setting [1], over 2000 nM; under setting [2], over 2000 nM; under setting [3], over 10000 nM; under setting [4], over 2000 nM; under setting [5], over 10000 nM; under setting [6], over 2000 nM. The IC50 reads like this: under setting [7], over 2000 nM; under setting [8], over 2000 nM; under setting [9], over 2000 nM.

Consider `CC(=O)c1c([S+]([O-])CC#N)[nH]c2c(Br)ccc(Cl)c2c1=O` (stereo not drawn) [Compound 65, 2-((3-acetyl-8-bromo-5-chloro-4-oxo-1,4-dihydroquinolin-2-yl)sulfinyl)acetonitrile], for which the IC50 was over 2000 nM under setting [1]; over 2000 nM under setting [2]; over 10000 nM under setting [3]; over 2000 nM under setting [4]; over 10000 nM under setting [5]; over 2000 nM under setting [6]. Besides, the IC50 under setting [7] is over 2000 nM, the IC50 under setting [8] was over 2000 nM and the IC50 under setting [9] was over 2000 nM.

`CC(=O)c1c(SCC#N)[nH]c2c(Br)ccc(Cl)c2c1=O` [Compound 66, 2-((3-acetyl-8-bromo-5-chloro-4-oxo-1,4-dihydroquinolin-2-yl)thio)acetonitrile]: the IC50 is over 2000 nM under setting [1]; over 2000 nM under setting [2]; over 10000 nM under setting [3]; over 2000 nM under setting [4]; over 10000 nM under setting [5]; over 2000 nM under setting [6]. The IC50 under setting [7] is over 2000 nM, the IC50 under setting [8] was over 2000 nM and the IC50 under setting [9] was over 2000 nM.
